# Results reported in patent US6133311A, “Method for preventing or treating elevated blood lipid level-related diseases by administering natural phenolic compounds” (priority 1998, dated 2000).
# What was measured:
# [1] = test system: liver cells around the central vein; assay: fatty liver: proportion of abnormal fat-containing cells in the liver of rabbits; assay type: in vivo, New Zealand White rabbits; conditions: 6 weeks; for A: Proportion of abnormal fat-containing liver cells (grade): 1% cholesterol diet plus 0.1% compound (Lovastatin 1 mg/kg), mean of grades 1+ to 4+, Control 3.2 ± 0.3; for inhibition of the formation of fatty liver: 1% cholesterol diet
# Protocol: 30 three-month-old male New Zealand White rabbits (Yeonam Horticulture and Animal Husbandry College, Korea), each weighing about 2.5 to 2.6 kg, were raised under a condition of temperature 20+2° C., relative humidity 55±5%, and photoperiod 12L/12D. The rabbits were divided into 5 groups and 5 groups of rabbits were fed with 5 different diets, i.e., RC4 diet (Oriental Yeast Co., Japan) containing 1% cholesterol (Control group, 1); 1% cholesterol plus 1 mg/kg Lovastatin® (Merck, U.S.A.) (Lovastatin® group, 2); 1% cholesterol plus 0.1% tannin (3); 1% cholesterol plus 0.1% gallic acid (4); and 1% cholesterol plus 0.1% ellagic acid (5), respectively. RC4 diet comprises 7.6% moisture, 22.8% crude protein, 2.8% crude fat, 8.8% crude ash, 14.4% crude cellulose and 43.6% soluble nitrogen-free substances. Tannin, gallic acid and ellagic acid were purchased from Sigma Chemical Co. (St. Louis, Mo.).
# The rabbits were fed for 6 weeks while being allowed free access to the diets and water.
# (Step 5) Prevention of Hepatic Diseases
# [2] = acute oral toxicity in mice; assay type: in vivo, ICR mice; conditions: for toxicity: oral, mouse, single dose 5,000 mg/kg
# Protocol: Toxicity of Orally Administered tannin, gallic acid or ellagic acid
# 36 seven-week-old, specific pathogen-free ICR […] female mice each weighing about 25 to 29 g and 18 male mice each weighing about 34 to 38 9, were kept under an environment of 22±1° C., 55±5% relative humidity and 12L/12D photoperiod. Fodder (Cheiljedang Co., mouse and rat fodder) and water were sterilized and fed to the mice.
# Tannin, gallic acid or ellagic acid purchased from Aldrich-Sigma Chemical Co. (St. Louis, Mo., U.S.A) was dissolved in 0.5% Tween 80 to a concentration of 500 mg/ml, and the solution was orally administered to the mice in an amount of 0.2 ml per 20 g of mouse body weight. […] Further, on the 10th day, the mice were sacrificed and the internal organs were visually examined.
# ACAT = target: T1, ACAT (Rattus norvegicus, UniProt Q7TQM4); assay: ACAT inhibition in liver microsomes of fed rats; assay type: biochemical; conditions: liver microsomes of rats fed 0.1% compound, vs Control
# T1 construct: microsomes were separated from liver tissues to be used as an enzyme source; from tissue; host or cells: rat liver microsomes
# T1 sequence (Q7TQM4 1-524): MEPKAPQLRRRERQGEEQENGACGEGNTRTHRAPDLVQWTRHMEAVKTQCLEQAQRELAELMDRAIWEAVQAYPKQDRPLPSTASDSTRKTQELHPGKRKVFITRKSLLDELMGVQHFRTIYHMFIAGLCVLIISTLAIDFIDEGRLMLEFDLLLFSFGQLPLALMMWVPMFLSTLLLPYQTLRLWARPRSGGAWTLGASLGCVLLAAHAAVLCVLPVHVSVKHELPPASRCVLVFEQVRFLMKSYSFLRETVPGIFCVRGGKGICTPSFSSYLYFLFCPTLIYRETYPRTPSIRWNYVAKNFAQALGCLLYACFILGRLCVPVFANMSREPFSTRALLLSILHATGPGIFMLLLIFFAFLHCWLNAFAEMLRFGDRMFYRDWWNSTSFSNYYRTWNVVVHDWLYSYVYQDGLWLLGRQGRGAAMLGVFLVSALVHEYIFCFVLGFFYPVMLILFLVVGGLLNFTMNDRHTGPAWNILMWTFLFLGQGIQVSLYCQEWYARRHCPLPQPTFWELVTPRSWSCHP
# Protocol: Activity of Tannin or gallic acid in ACAT Inhibition
# To determine the effect of feeding tannin or gallic acid to rats on the activity of ACAT, microsomes were separated from liver tissues to be used as an enzyme source.
# 1 g each of the livers taken from each group of rats of Example 2 was homogenized in 5 ml of homogenization medium (0.1 M KH2 PO4, pH 7.4, 0.1 mM EDTA and 10 mM β-mercaptoethanol). The homogenate was centrifuged at 3,000xg for 15 min. at 4° C. and the supernatant thus obtained was centrifuged at 15,000xg for 15 min. at 4° C. to obtain a supernatant. The supernatant was put into an ultracentrifuge tube (Beckman) and centrifuged at 100,000 xg for 1 hour at 4° C. to obtain microsomal pellets, which were then suspended in 3 ml of the homogenization medium and centrifuged at 100,000 xg for 1 hour at 4° C. […] The protein concentration of the resulting suspension was determined by Lowry's method and then adjusted to 4 to 8 mg/ml. […]
# 200 μl of the resulting supernatant was put in a scintillation bottle and 4 ml of scintillation fluid (Lumac) was added thereto. The mixture was assayed for radioactivity with 1450 Microbeta liquid scintillation counter (Wallacoy, Finland). ACAT activity was calculated as picomoles of cholesteryl oleate synthesized per min. per mg protein (pmoles/min/mg protein) The result is shown in Table III.
Compound,A: Proportion of abnormal fat-containing liver cells (grade) [1],inhibition of the formation of fatty liver [1],"weight loss ([2]; oral 5,000 mg/kg, 10 day test period)","pathological abnormality at autopsy ([2]; oral 5,000 mg/kg, day 10)","survival ([2]; oral 5,000 mg/kg, day 10)",toxicity [2],% Inhibition on ACAT activity (ACAT)
"O=C(O)c1cc(O)c(O)c(O)c1 [Gallic acid, gallic acid]",2.7 ± 0.4,can significantly inhibit the formation of fatty liver,no weight loss,had not developed any pathological abnormality,All the mice were alive at day 10,no toxicity,42.1%
tannin,2.7 ± 0.4,significantly inhibit the formation of fatty liver,–,–,–,no toxicity,41.7%
